Experiments:
Format in all cases: toxicity, cell-based
[1] = system: HEK-293T; assay: Incucyte cell viability with HEK293T; settings: human, 10 µM, compound concentration 10 uM
[2] = system: Fibroblast; assay: Incucyte cell viability with human fibroblast; settings: 10 µM, compound concentration 10 uM
[3] = system: U2OS; assay: Incucyte cell viability with U2OS; settings: human, 10 µM, compound concentration 10 uM
Further: unitless GR value; below 1 slowed growth and below 0 cell loss.

SMILES	Growth Rate ([1]; 6 h, replicate number 1)	Growth Rate ([1]; 6 h, replicate number 2)	Growth Rate ([1]; 12 h, replicate number 1)	Growth Rate ([1]; 12 h, replicate number 2)	Growth Rate ([1]; 18 h, replicate number 1)	Growth Rate ([1]; 18 h, replicate number 2)	Growth Rate ([1]; 24 h, replicate number 1)	Growth Rate ([1]; 24 h, replicate number 2)	Growth Rate ([2]; 6 h, replicate number 2)	Growth Rate ([2]; 12 h, replicate number 1)	Growth Rate ([2]; 12 h, replicate number 2)	Growth Rate ([2]; 18 h, replicate number 2)	Growth Rate ([2]; 24 h, replicate number 2)	Growth Rate ([3]; 0 h, replicate number 2)	Growth Rate ([3]; 6 h, replicate number 1)	Growth Rate ([3]; 6 h, replicate number 2)	Growth Rate ([3]; 12 h, replicate number 1)	Growth Rate ([3]; 12 h, replicate number 2)	Growth Rate ([3]; 18 h, replicate number 1)	Growth Rate ([3]; 18 h, replicate number 2)	also measured
O=C(Nc1ccc(-n2nc(C(F)(F)F)cc2C(F)(F)F)cc1)c1ccncc1F	-0.04	-0.25	0.33	0.24	0.25	0.42	0.31	0.46	-1	-1	0.14	0.72	0.69	-1	-0.16	0.41	0.54	0.63	0.8	0.66	Growth Rate ([2]; 0 h, replicate number 1): -0.09; Growth Rate ([2]; 6 h, replicate number 1): 0.37; Growth Rate ([2]; 24 h, replicate number 1): 0.81; Growth Rate ([3]; 24 h, replicate number 1): 0.69; Growth Rate ([3]; 24 h, replicate number 2): 0.77
O=C(NCc1cccnc1OCC(F)(F)F)c1cncc(-c2ccc(Cl)cc2)c1	0.82	–	–	–	0.84	–	0.81	–	-1	–	0.57	0.96	–	-0.65	0.44	–	0.98	–	–	–	Growth Rate ([2]; 18 h, replicate number 1): -0.38; Growth Rate ([2]; 24 h, replicate number 1): 0.21
FC(F)(F)c1ccccc1-c1cc(C(F)(F)F)c2[nH]c(C3=NOC4(CCCCC4)C3)nc2c1	0.12	-0.15	-0.3	-0.05	-0.22	-0.02	-0.23	0	-0.79	–	-0.41	-0.08	-0.03	-0.12	–	–	–	0.98	–	–	Growth Rate ([3]; 24 h, replicate number 2): 0.94
COc1cc(N)c(Cl)cc1C(=O)NC1CN2CCC1CC2.Cl (stereo not given)	-0.18	-0.12	0.31	0.19	0.18	0.29	0.31	0.38	-0.28	0.48	–	–	–	-0.2	0.67	0.95	0.95	–	–	1	Growth Rate ([2]; 0 h, replicate number 2): -0.73; Growth Rate ([2]; 6 h, replicate number 1): -0.82
CCCC(=O)C1CCN(c2ncnc3c2CN(C(=O)c2ccc(-c4ccccc4)cc2)CC3)CC1	0.24	0.35	–	0.75	–	0.82	–	0.74	-1	–	0.73	0.93	0.9	–	0.51	–	0.92	–	0.81	–	Growth Rate ([2]; 6 h, replicate number 1): 0.84; Growth Rate ([2]; 18 h, replicate number 1): 0.74; Growth Rate ([3]; 24 h, replicate number 1): 0.83
N#Cc1cccc(-c2nc(-c3cccnc3)no2)c1	0.4	0.1	–	0.6	–	0.95	–	–	0.7	-0.97	0.88	0.55	0.92	-0.52	–	–	0.67	–	–	1	Growth Rate ([2]; 0 h, replicate number 1): -0.49; Growth Rate ([2]; 18 h, replicate number 1): -0.08; Growth Rate ([2]; 24 h, replicate number 1): 0.19
COc1c(C(=O)/C=C/c2ccccc2)c(O)c(OC)c2occc12	-0.45	-0.38	0.27	0.28	0.86	0.53	–	0.75	-0.26	-0.31	0.35	0.84	0.71	-0.14	0.86	0.76	0.64	0.6	0.71	0.55	Growth Rate ([2]; 18 h, replicate number 1): 0; Growth Rate ([2]; 24 h, replicate number 1): 0.86; Growth Rate ([3]; 0 h, replicate number 1): -0.43; Growth Rate ([3]; 24 h, replicate number 1): 0.78; Growth Rate ([3]; 24 h, replicate number 2): 0.83
O=C1CSC(=O)N1C(CCc1ccncc1)COc1ccc(-c2cccc([N+](=O)[O-])c2)cc1 (stereo not given)	-0.06	0.02	0.24	0.27	0.48	–	0.87	0.65	–	–	–	–	–	-0.97	0.3	–	0.76	0.94	0.8	0.95	Growth Rate ([2]; 0 h, replicate number 1): 0.71; Growth Rate ([2]; 0 h, replicate number 2): -0.87; Growth Rate ([2]; 18 h, replicate number 1): 0.92; Growth Rate ([2]; 24 h, replicate number 1): 0.45; Growth Rate ([3]; 0 h, replicate number 1): -0.68; Growth Rate ([3]; 24 h, replicate number 1): 0.89; Growth Rate ([3]; 24 h, replicate number 2): 1
Cc1ccc(S(=O)(=O)Nc2ccc(-n3nc(C(F)(F)F)cc3C(F)(F)F)cc2)cc1	0.36	0.63	0.58	0.66	0.47	0.81	0.62	0.92	-1	-1	0.78	–	0.83	–	0.01	0.69	0.91	0.8	0.74	0.83	Growth Rate ([2]; 6 h, replicate number 1): -0.21; Growth Rate ([2]; 18 h, replicate number 1): 0.74; Growth Rate ([3]; 24 h, replicate number 1): 0.84; Growth Rate ([3]; 24 h, replicate number 2): 0.72
O=C(Nc1c(-c2cccs2)nc2ccc(Cl)cn12)c1ccc(Cl)cc1	0.88	–	–	–	–	–	–	–	-1	-1	–	–	–	–	0.3	0.69	0.64	0.81	0.95	0.75	Growth Rate ([2]; 0 h, replicate number 1): 0.89; Growth Rate ([2]; 18 h, replicate number 1): 0.47; Growth Rate ([3]; 24 h, replicate number 1): 0.97; Growth Rate ([3]; 24 h, replicate number 2): 0.56
CC1(C)CC(CN2CCC(F)(CNC(=O)c3cc(Cl)cc(Cl)c3)CC2)CCO1 (stereo not given)	0.4	–	–	–	–	–	–	–	0.34	–	–	–	0.97	–	0.71	0.8	0.85	–	–	–	Growth Rate ([2]; 6 h, replicate number 1): -1; Growth Rate ([3]; 0 h, replicate number 1): -0.43
Cc1c(-c2cc(-c3ccccc3Cl)no2)cnn1C1CCNCC1.Cl	-0.95	-0.85	-0.84	-0.43	-0.72	-0.18	-0.68	-0.15	-1	-1	-0.55	-0.4	-0.36	-1	0.45	0.01	0.76	0.66	0.87	0.68	Growth Rate ([2]; 0 h, replicate number 1): 0.68; Growth Rate ([2]; 6 h, replicate number 1): 0.11; Growth Rate ([2]; 24 h, replicate number 1): 0.83; Growth Rate ([3]; 24 h, replicate number 1): 0.89; Growth Rate ([3]; 24 h, replicate number 2): 0.75

From ChEMBL document CHEMBL5303304, “EUbOPEN Chemogenomics Library - IncuCyte” (2023)
